{
  "source": "patent US20090298783A1",
  "about": "“Cosmetic Compositions” (Cognis IPanagement GmbH, priority 2006, published 2009)",
  "key": {"GMCSF": {"tested_on": "GMCSF", "assay": "Nickel-induced GMCSF release from human keratinocytes (ELISA)", "type": "cell-based", "conditions": "48 hours", "protocol": "(§1) The soothing potential of silybin, piperin, rhapontin, nortrachelogenine and arctiin was evaluated on primary culture of human keratinocytes treated by a nickel salt (nickel chloride, Sigma) according to the method of Ermolli M, et al. “Nickel, cobalt and chromium-induced cytotoxicity and intracellular accumulation in human HaCaT keratinocytes” [Toxicology. 2001 Feb. 21; 159(1-2): 23-31] and compared to hydrocortisone (HOC; Sigma, France).\n(§2) After a growth phase in medium enriched by fetal calf serum, the cells were treated with the nickel salt and with the test compounds. After 48 hours at 37° C., CO2=5%, the level of released GMCSF (ELISA method) and cell viability (MTT test) were determined."}, "[1]": {"tested_on": "primary culture of human keratinocytes", "assay": "Cell viability (MTT test) of nickel-treated human keratinocytes", "conditions": "nickel salt alone at 0.75 mM, 48 hours", "protocol": "as §1, §2"}, "[2]": {"conditions": "first set, Ni 0.75 mM (=100) + test compound at 0.001%, mean +/- SEM on 3 separate assays"}},
  "note": "Marks after values point to notes of the source that are not given here.",
  "data": [
    {"smiles": "COc1cc([C@H]2Oc3cc([C@H]4Oc5cc(O)cc(O)c5C(=O)[C@@H]4O)ccc3O[C@@H]2CO)ccc1O", "note": "[silybin]", "values": [
      {"measurement": "GMCSF released", "setting": "GMCSF; first set, Ni 0.75 mM (=100) + test compound at 0.0003%, mean +/- SEM on 3 separate assays", "value": "88 +/− 19 percentage referring to control"},
      {"measurement": "GMCSF released", "setting": "GMCSF; [2]", "value": "48 +/− 12* percentage referring to control"},
      {"measurement": "GMCSF released", "setting": "GMCSF; first set, Ni 0.75 mM (=100) + test compound at 0.001%, mean +/- SEM on 3 separate assays, listed as Silybin", "value": "significantly lowered"}
    ]},
    {"smiles": "O=C(/C=C/C=C/c1ccc2c(c1)OCO2)N1CCCCC1", "note": "[piperine, (E,E)-1-[5-(1,3-benzodioxol-5-yl)-1-oxo-2,4-pentadienyl]piperidine]", "values": [
      {"measurement": "GMCSF released", "setting": "GMCSF; [2]", "value": "79 +/− 14 percentage referring to control"},
      {"measurement": "GMCSF released", "setting": "GMCSF; first set, Ni 0.75 mM (=100) + test compound at 0.003%, mean +/- SEM on 3 separate assays", "value": "29 +/− 13* percentage referring to control"},
      {"measurement": "GMCSF released", "setting": "GMCSF; first set, Ni 0.75 mM (=100) + test compound at 0.003%, mean +/- SEM on 3 separate assays, listed as Piperine", "value": "significantly lowered"}
    ]},
    {"smiles": "[Cl][Ni][Cl]", "note": "[Nickel (Ni), nickel chloride]", "values": [
      {"measurement": "MTT", "setting": "[1]; first set, mean +/- SEM on 3 separate assays", "value": "68 +/− 9 percentage referring to control"},
      {"measurement": "MTT", "setting": "[1]; first set, mean +/- SEM on 3 separate assays, listed as nickel", "value": "distinctly decreased cell viability"},
      {"measurement": "MTT", "setting": "[1]; second set, mean on 1 assay in triplicate", "value": "33 percentage referring to control"}
    ]},
    {"smiles": "C[C@]12CCC(=O)C=C1CC[C@@H]1[C@@H]2[C@@H](O)C[C@@]2(C)[C@H]1CC[C@]2(O)C(=O)CO", "note": "[HOC, hydrocortisone, reference compound]", "values": [
      {"measurement": "GMCSF released", "setting": "GMCSF; second set, Ni 0.75 mM (=100) + test compound at 1 μM, mean on 1 assay in triplicate", "value": "52 percentage referring to control"}
    ]},
    {"smiles": "COc1ccc(/C=C/c2cc(O)cc(O[C@@H]3O[C@H](CO)[C@@H](O)[C@H](O)[C@H]3O)c2)cc1O", "note": "[rhapontin, 3,3′,5-Trihydroxy-4′-methoxystilbene 3-b-D-glucopyranoside]", "values": [
      {"measurement": "GMCSF released", "setting": "GMCSF; second set, Ni 0.75 mM (=100) + test compound at 0.01%, mean on 1 assay in triplicate", "value": "72 percentage referring to control"},
      {"measurement": "GMCSF released", "setting": "GMCSF; second set, Ni 0.75 mM (=100) + test compound at 0.01%, mean on 1 assay in triplicate, listed as Rhapontin", "value": "lowered"}
    ]}
  ]
}
